Assay [1] addresses hSERT (Homo sapiens (Human), UniProt P31645). The assay is described as follows: SERT radioligand binding assay ([125I]RTI-55, HEK-293 membranes). As to conditions: for inhibition at 0.1 µM: 100 nM, SERT IC50 with footnote *. The method, then: (§1) The medium was removed from the flasks and the cells rinsed with HBSS without Ca and without Mg. The cells were then incubated for 5-10 minutes in 10 mM Tris-Cl, pH 7.5, 5 mM EDTA before the cells were lifted with a combination of pipetting and scraping, as needed. The cell suspension was collected into centrifuge bottles and homogenized for 30 seconds with a Polytron homogenizer. The suspension was centrifuged for 30 minutes at 32,000×g, 4° C. The supernatant was decanted and the pellet resuspended and homogenized in 50 mM Tris-Cl, pH 7.5, 1 mM EDTA for 10 seconds. The suspension was then centrifuged again for 30 minutes at 32,000×g, 4° C. The supernatant was decanted and the pellet resuspended in 50 mM Tris-Cl, pH 7.5, 1 mM EDTA and briefly homogenized. A Bradford assay (Bio-rad) was performed and the membrane preparation diluted to 2 mg/ml with 50 mM Tris-Cl, pH 7.5, 1 mM EDTA. Aliquots were prepared, and then frozen and stored at −80° C.
Compounds were dissolved in 100% DMSO at a concentration 100 times the desired highest assay concentration, serially diluted 1:3 in 100% DMSO, and 0.4 μl/well of each solution was dispensed to a Nunc polypropylene, round bottom, 384-well plate. […] The contents of the assay plate were then transferred to a Millipore MultiscreenHTS GF/B filter plate which was pretreated with 0.5% PEI for at least one hour. The plate was vacuum filtered and washed with 7 washes of 100 μl/well 50 mM Tris-Cl, pH 7.5, 120 mM NaCl, 5 mM KCl chilled to 4° C. The filtration and washing were completed in less than 90 seconds. The plates were air-dried overnight, 12 μl/well of MicroScint scintillation fluid added, and the plates counted in a Trilux.
Each plate was run in triplicate, and the concentration response curve thus generated was fit using the four-parameter dose response equation, Y=Bottom+(Top-Bottom)/(1+10^((LogIC50−X)*HillSlope)) in order to determine the IC50 value for each compound. The radioligand concentration chosen for each assay corresponds to the Kd concentration determined through saturation binding analysis for each assay.

For assay [2], the target named is hDAT (Homo sapiens (Human), UniProt Q01959). The assay is described as follows: DAT radioligand binding assay ([125I]RTI-55, HEK-293 membranes). As to conditions: for inhibition at 0.1 µM: 100 nM, DAT IC50 with footnote *. The protocol: as §1, with “Recombinant HEK-293 cells expressing either the hSERT, hDAT, or hNET proteins were harvested from T-175 flasks as follows. The medium” for “The medium”
Sequence of hDAT (Q01959 whole entry): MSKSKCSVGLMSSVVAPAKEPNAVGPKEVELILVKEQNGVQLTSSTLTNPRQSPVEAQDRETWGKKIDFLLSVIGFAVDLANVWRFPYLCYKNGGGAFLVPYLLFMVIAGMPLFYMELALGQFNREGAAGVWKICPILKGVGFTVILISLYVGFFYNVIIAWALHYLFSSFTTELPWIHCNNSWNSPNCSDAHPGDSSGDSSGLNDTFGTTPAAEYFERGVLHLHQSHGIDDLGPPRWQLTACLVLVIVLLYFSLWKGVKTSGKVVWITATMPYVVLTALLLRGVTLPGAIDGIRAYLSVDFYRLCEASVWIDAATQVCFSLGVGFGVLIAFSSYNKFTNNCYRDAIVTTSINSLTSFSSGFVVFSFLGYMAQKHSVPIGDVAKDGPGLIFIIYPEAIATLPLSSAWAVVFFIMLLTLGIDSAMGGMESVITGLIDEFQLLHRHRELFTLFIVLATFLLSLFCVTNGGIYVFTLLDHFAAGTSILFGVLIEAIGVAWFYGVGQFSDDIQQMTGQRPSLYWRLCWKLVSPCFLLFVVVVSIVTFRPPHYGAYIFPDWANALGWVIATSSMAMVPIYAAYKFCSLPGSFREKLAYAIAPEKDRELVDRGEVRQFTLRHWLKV
Compounds were dissolved in 100% DMSO at a concentration 100 times the desired highest assay concentration, serially diluted 1:3 in 100% DMSO, and 0.4 μl/well of each solution was dispensed to a Nunc polypropylene, round bottom, 384-well plate. 100% inhibition is defined with 0.4 μl/well of 1 mM GBR-12935 dissolved in DMSO. 20 ul/well of a 2× membrane preparation (12.5 μg/ml in 30 mM sodium phosphate buffer, pH 7.9 at 4° C.) and 20 μl/well of a 2× radioligand solution ([…] [^125I]RTI-55 in 30 mM sodium phosphate buffer, pH 7.9 at 4° C.) were added to the well and the reaction incubated for 1 hour at room temperature. The contents of the assay plate were then transferred to a Millipore MultiscreenHTS GF/B filter plate which was pretreated with 0.5% PEI for at least one hour. The plate was vacuum-filtered and washed with 7 washes of 100 μl/well 50 mM Tris-Cl, pH 7.5, 120 mM NaCl, 5 mM KCl chilled to 4° C. The filtration and washing were completed in less than 90 seconds. The plates were air-dried overnight, 12 μl/well of MicroScint scintillation fluid added, and the plates counted in a Trilux.
(§2) The raw data was normalized to percent inhibition using control wells defining 0% (DMSO only) and 100% (selective inhibitor) inhibition which were run on each plate. Each plate was run in triplicate, and the concentration response curve thus generated was fit using the four-parameter dose response equation, Y=Bottom+(Top-Bottom)/(1+10^((LogIC50−X)*HillSlope)) in order to determine the IC50 value for each compound. The radioligand concentration chosen for each assay corresponds to the Kd concentration determined through saturation binding analysis for each assay.

The target of assay [3] is hNET (Homo sapiens (Human), UniProt P23975). The assay is described as follows: NET radioligand binding assay ([3H]nisoxetine, HEK-293 membranes). The following applies: for IC50: (+)-enantiomers; for inhibition at 0.1 µM: 100 nM, NET IC50 with footnote *. The protocol:
as §1, with “Recombinant HEK-293 cells expressing either the hSERT, hDAT, or hNET proteins were harvested from T-175 flasks as follows. The medium” for “The medium”
Compounds were dissolved in 100% DMSO at a concentration 100 times the desired highest assay concentration, serially diluted 1:3 in 100% DMSO, and 1.0 μl/well of each solution was dispensed to a Nunc polypropylene, round bottom, 384-well plate. 100% inhibition is defined with 1.0 μl/well of 10 mM desipramine dissolved in DMSO. 50 μl/well of a 2× membrane preparation (0.4 mg/ml in 50 mM Tris-Cl, pH 7.5, 120 mM NaCl, 5 mM KCl) and 50 μl/well of a 2× radioligand solution (4 nM [^3H]nisoxetine in 50 mM Tris-Cl, pH 7.5, 120 mM NaCl, 5 mM KCl) were added to the well and the reaction incubated for 1 hour at room temperature. The contents of the assay plate were then transferred to a Millipore MultiscreenHTS GF/B filter plate which was pretreated with 0.5% PEI for at least one hour. The plate was vacuum filtered and washed with 7 washes of 100 μl/well 50 mM Tris-Cl, pH 7.5, 120 mM NaCl, 5 mM KCl chilled to 4° C. The filtration and washing were completed in less than 90 seconds. The plates were air-dried overnight, 12 μl/well of MicroScint scintillation fluid added, and the plates counted in a Trilux.
as §2

Where [4] appears, read: (+)-enantiomers, read-out: SERT IC50.
The mark [5] stands for this setting: (+)-enantiomers, read-out: DAT IC50.

SMILES strings stand for the structures. Where two headings read alike, the source gives them in different places.

As a reminder, the IC50 is the point on the concentration scale where inhibition reaches its midpoint. In general, inhibition refers to how much of the control response was suppressed.

Sequence of hNET (P23975 whole entry): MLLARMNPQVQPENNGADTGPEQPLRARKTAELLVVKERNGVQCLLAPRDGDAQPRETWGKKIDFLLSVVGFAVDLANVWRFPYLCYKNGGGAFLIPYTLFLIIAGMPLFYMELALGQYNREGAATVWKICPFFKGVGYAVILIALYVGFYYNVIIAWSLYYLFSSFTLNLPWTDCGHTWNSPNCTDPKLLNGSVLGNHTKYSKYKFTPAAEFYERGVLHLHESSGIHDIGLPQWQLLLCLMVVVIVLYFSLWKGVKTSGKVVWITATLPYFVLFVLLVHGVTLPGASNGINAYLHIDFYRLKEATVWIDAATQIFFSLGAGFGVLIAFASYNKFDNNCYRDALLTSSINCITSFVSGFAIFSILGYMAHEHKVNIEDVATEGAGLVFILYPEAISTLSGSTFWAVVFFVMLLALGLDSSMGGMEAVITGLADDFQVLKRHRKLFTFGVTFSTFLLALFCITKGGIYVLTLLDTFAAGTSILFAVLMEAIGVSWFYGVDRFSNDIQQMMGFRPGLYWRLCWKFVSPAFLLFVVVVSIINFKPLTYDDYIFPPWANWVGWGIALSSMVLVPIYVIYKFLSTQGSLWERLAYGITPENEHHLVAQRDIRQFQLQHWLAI
Sequence of hSERT (P31645 whole entry): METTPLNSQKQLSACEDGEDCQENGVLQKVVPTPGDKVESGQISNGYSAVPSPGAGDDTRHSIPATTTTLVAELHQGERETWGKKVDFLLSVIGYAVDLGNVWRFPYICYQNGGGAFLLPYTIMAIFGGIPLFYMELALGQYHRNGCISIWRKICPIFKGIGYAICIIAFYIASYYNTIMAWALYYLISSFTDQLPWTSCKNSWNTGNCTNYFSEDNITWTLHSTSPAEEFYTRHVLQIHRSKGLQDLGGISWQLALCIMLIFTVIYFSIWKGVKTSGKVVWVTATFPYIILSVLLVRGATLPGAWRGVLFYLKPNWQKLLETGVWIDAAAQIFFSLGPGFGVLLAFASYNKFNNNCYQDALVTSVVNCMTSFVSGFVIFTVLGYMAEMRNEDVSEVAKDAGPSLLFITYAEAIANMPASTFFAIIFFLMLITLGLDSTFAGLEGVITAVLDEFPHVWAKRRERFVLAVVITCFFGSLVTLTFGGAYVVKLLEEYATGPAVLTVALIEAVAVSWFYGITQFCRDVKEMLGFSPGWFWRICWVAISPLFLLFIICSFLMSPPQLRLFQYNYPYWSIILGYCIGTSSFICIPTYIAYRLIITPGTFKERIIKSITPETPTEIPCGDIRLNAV

For `N#Cc1cccc(-c2ccc3c(c2)CNCC3c2ccc(Cl)c(Cl)c2)c1` (stereo not shown) [Example 15, 3-(4-(3,4-dichlorophenyl)-1,2,3,4-tetrahydroisoquinolin-7-yl)benzonitrile], the concentration for half-maximal inhibition (IC50) in assay [1] (setting [4]) came to 14 nM; in assay [2] (setting [5]) it was 213 nM; in assay [3], 86 nM.
Consider `COc1ccc(-c2ccc3c(c2)C(C)NCC3c2ccc(Cl)cc2)nn1` (stereo not shown) [Example 8, 4-(4-Chloro-phenyl)-7-(6-methoxy-pyridazin-3-yl)-1-methyl-1,2,3,4-tetrahydro-isoquinoline], for which the inhibition at 0.1 µM in assay [1] came out at 59%; in assay [2] it was 30%; in assay [3] it was 49%.
Regarding `FC(F)(F)c1ccc(-c2ccc3c(c2)CNCC3c2ccc(Cl)c(Cl)c2)nn1` (stereo not shown) [Example 11, 4-(3,4-dichlorophenyl)-7-(6-(trifluoromethyl)pyridazin-3-yl)-1,2,3,4-tetrahydroisoquinoline], the IC50 in assay [1] (setting [4]) came out at 10 nM; in assay [2] (setting [5]), 80 nM; in assay [3] it was 13 nM.
As for `CS(=O)(=O)c1cccc(-c2cc3c(cc2F)C(c2ccc(Cl)c(Cl)c2)CNC3)c1` (stereo not shown) [Example 23, 4-(3,4-dichlorophenyl)-6-fluoro-7-(3-(methylsulfonyl)phenyl)-1,2,3,4-tetrahydroisoquinoline], the half-maximal inhibitory concentration (IC50) in assay [1] (setting [4]) was found to be 83.6 nM; in assay [2] (setting [5]), 101 nM; in assay [3], 283 nM.
For `Nc1ccc(-c2ccc3c(c2)CNCC3c2ccc(F)cc2)nn1` (stereo not shown) [Example 2, 6-(4-(4-fluorophenyl)-1,2,3,4-tetrahydroisoquinolin-7-yl)pyridazin-3-amine], the IC50 in assay [1] (setting [4]) came to 144 nM; in assay [2] (setting [5]), 89.4 nM; in assay [3], 360 nM.
As to `Fc1cc2c(cc1-c1ccc(C(F)(F)F)nn1)CNCC2c1ccc(Cl)c(Cl)c1` (single isomer, unassigned; (+)) [Example 29, (+)-4-(3,4-dichlorophenyl)-6-fluoro-7-(6-(trifluoromethyl)pyridazin-3-yl)-1,2,3,4-tetrahydroisoquinoline], the IC50 is 29.7 nM in assay [1] (setting [4]), 78.3 nM in assay [2] (setting [5]) and 34.1 nM in assay [3].
As for `O=c1ccccn1-c1ccc2c(c1)CNCC2c1ccc(Cl)c(Cl)c1` (stereo not shown) [Example 17, 1-(4-(3,4-dichlorophenyl)-1,2,3,4-tetrahydroisoquinolin-7-yl)pyridin-2(1H)-one], the values for the half-inhibitory concentration (IC50) in assay [1] (setting [4]), in assay [2] (setting [5]) and in assay [3] were 6.9 nM, 84.7 nM and 421 nM, respectively.
Take `Nc1ccc(-c2ccc3c(c2)CNCC3c2ccc(Cl)cc2)nn1` (single isomer, unassigned; (+)) [Example 5, (+)-6-(4-(4-chlorophenyl)-1,2,3,4-tetrahydroisoquinolin-7-yl)pyridazin-3-amine]: the IC50 in assay [1] (setting [4]) is 15.8 nM; in assay [2] (setting [5]), 31.2 nM; in assay [3] it was 63.1 nM.
Take `Fc1cc2c(cc1-c1ccc(OC(F)F)nn1)CNCC2c1ccc(Cl)c(Cl)c1` (single isomer, unassigned; (+)) [Example 31, (+)-4-(3,4-dichlorophenyl)-7-(6-(difluoromethoxy)pyridazin-3-yl)-6-fluoro-1,2,3,4-tetrahydroisoquinoline]: the figures for the IC50 in assay [1] (setting [4]), in assay [2] (setting [5]) and in assay [3] were 15.9 nM, 33 nM and 9.8 nM, respectively.
`NC(=O)c1ccc(-c2cc3c(cc2F)C(c2ccc(Cl)cc2)CNC3)cc1` (stereo not shown) [Example 30, 4-(4-(4-chlorophenyl)-6-fluoro-1,2,3,4-tetrahydroisoquinolin-7-yl)benzamide]: the IC50 was found to be 101 nM in assay [1] (setting [4]), 24.5 nM in assay [2] (setting [5]) and 215 nM in assay [3].
Take `CC1NCC(c2ccc(Cl)cc2)c2ccc(-c3ccc(Cl)nn3)cc21` (stereo not shown) [Example 6, 4-(4-Chloro-phenyl)-7-(6-chloro-pyridazin-3-yl)-1-methyl-1,2,3,4-tetrahydro-isoquinoline]: the inhibition at 0.1 µM in assay [1] was found to be 35%; in assay [2], 9%; in assay [3], 0%.
Take `CC1(C)NCC(c2ccc(Cl)cc2)c2ccc(-c3ccc(C(F)(F)F)nn3)cc21` (single isomer, unassigned) [Example 35, 4-(4-chlorophenyl)-1,1-dimethyl-7-(6-(trifluoromethyl)pyridazin-3-yl)-1,2,3,4-tetrahydroisoquinoline]: the IC50 in assay [1] was 61.1 nM; in assay [2] it was 80.2 nM; in assay [3], 1020 nM.
For `CC1(C)NCC(c2ccc(Cl)c(Cl)c2)c2ccc(-c3ccc(C(F)(F)F)nn3)cc21` (single isomer, unassigned) [Example 10, 4-(3,4-dichlorophenyl)-7-(6-(trifluoromethyl)pyridazin-3-yl)-1,1-dimethyl-1,2,3,4-tetrahydroisoquinoline], the IC50 in assay [3] amounted to 549 nM.
Consider `CNc1ccc(-c2ccc3c(c2)CNCC3c2ccc(F)cc2)nn1` (single isomer, unassigned; (+)) [Example 3, (+)-6-(4-(4-fluorophenyl)-1,2,3,4-tetrahydroisoquinolin-7-yl)-N-methylpyridazin-3-amine], for which the IC50 in assay [1] (setting [4]) turned out to be 53.8 nM; in assay [2] (setting [5]) it was 90.5 nM; in assay [3], 150 nM.
On the same counts, the results for `O=c1ccc(-c2cc3c(cc2F)C(c2ccc(Cl)c(Cl)c2)CNC3)n[nH]1` (stereo not shown) [Example 22, 6-(4-(3,4-dichlorophenyl)-6-fluoro-1,2,3,4-tetrahydroisoquinolin-7-yl)pyridazin-3(2H)-one] are 39 nM, 37 nM and 63 nM.
Consider `O=c1cccnn1-c1ccc2c(c1)CNCC2c1ccc(Cl)c(Cl)c1` (stereo not shown) [Example 18, 2-(4-(3,4-dichlorophenyl)-1,2,3,4-tetrahydroisoquinolin-7-yl)pyridazin-3(2H)-one], for which the IC50 in assay [1] (setting [4]) amounted to 6.1 nM; in assay [2] (setting [5]), 29.9 nM; in assay [3], 132 nM.

These data come from patent US9034899B2, “Aryl, heteroaryl, and heterocycle substituted tetrahydroisoquinolines and use thereof” (Albany Molecular Research, Inc., priority 2009, dated 2015).
